Several values for one entry are separate records, joined by “and”; a condition that tells them apart may be missing. Identical values can stand only once. Records with an inconclusive call do not appear.
Test system: CD8F1 mice, subcutaneous mammary adenocarcinoma, T/C%
Assay: NCI In Vivo Anticancer Drug Screen. Data for tumor model Mammary Adenocarcinoma CD8F1 (subcutaneous) in CD8F1
Conditions: higher = larger tumour
Outline: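 Compound-treated versus vehicle-treated mice with transplantable tumors; survival or tumor size compared as T/C.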

[1] = endpoint: median tumor weight (est.), dose: 6.25 mg/kg/injection, schedule: Q07DX005 (ip), vehicle: water
[2] = endpoint: median tumor weight change, dose: 125.0 mg/kg/injection, schedule: Q01DX001 (ip), vehicle: saline
[3] = endpoint: median tumor weight (est.), dose: 50.0 mg/kg/injection, schedule: Q07DX005 (ip), vehicle: water
[4] = endpoint: median tumor weight change, dose: 125.0 mg/kg/injection, schedule: Q01DX001 (ip), vehicle: saline with Tween-80
[5] = endpoint: median tumor weight (est.), dose: 12.5 mg/kg/injection, schedule: Q07DX005 (ip), vehicle: Klucel (hydroxypropylcellulose) (HPC)
[6] = endpoint: median tumor weight (est.), dose: 50.0 mg/kg/injection, schedule: Q07DX005 (ip), vehicle: Klucel (hydroxypropylcellulose) (HPC)
[7] = endpoint: median tumor weight (est.), dose: 100.0 mg/kg/injection, schedule: Q07DX005 (ip), vehicle: Klucel (hydroxypropylcellulose) (HPC)
[8] = endpoint: median tumor weight (est.), dose: 12.5 mg/kg/injection, schedule: Q07DX005 (ip), vehicle: saline with Tween-80
[9] = endpoint: median tumor weight (est.), dose: 25.0 mg/kg/injection, schedule: Q07DX005 (ip), vehicle: saline with Tween-80
[10] = endpoint: median tumor weight (est.), dose: 50.0 mg/kg/injection, schedule: Q07DX005 (ip), vehicle: saline with Tween-80
[11] = endpoint: median tumor weight (est.), dose: 100.0 mg/kg/injection, schedule: Q07DX005 (ip), vehicle: saline with Tween-80
[12] = endpoint: median tumor weight change, dose: 500.0 mg/kg/injection, schedule: Q01DX001 (ip), vehicle: saline
[13] = endpoint: median tumor weight (est.), dose: 200.0 mg/kg/injection, schedule: Q07DX005 (ip), vehicle: Klucel (hydroxypropylcellulose) (HPC)
[14] = endpoint: median tumor weight (est.), dose: 400.0 mg/kg/injection, schedule: Q07DX005 (ip), vehicle: Klucel (hydroxypropylcellulose) (HPC)

CCOC(=O)C1=C(C#N)C2(CCC(OCc3ccccc3)CC2)C(=O)O1 (configuration not stated)
T/C (endpoint: median tumor weight change, dose: 125.0 mg/kg/injection, schedule: Q01DX001 (ip), vehicle: suspension in saline): 66 % of control
T/C (endpoint: median tumor weight change, dose: 250.0 mg/kg/injection, schedule: Q01DX001 (ip), vehicle: suspension in saline): 63 % of control
T/C (endpoint: median tumor weight change, dose: 500.0 mg/kg/injection, schedule: Q01DX001 (ip), vehicle: suspension in saline): 50 % of control
T/C (endpoint: median tumor weight change, dose: 1000.0 mg/kg/injection, schedule: Q01DX001 (ip), vehicle: suspension in saline): 24 % of control

Cc1ccc2c(c1)C(=O)N(CC[P+](c1ccccc1)(c1ccccc1)c1ccccc1)C2=O
T/C (endpoint: mean tumor weight, dose: 1.56 mg/kg/injection, schedule: Q07DX006 (ip), vehicle: water): 90 % of control
T/C (endpoint: mean tumor weight, dose: 6.25 mg/kg/injection, schedule: Q07DX006 (ip), vehicle: water): 96 % of control
T/C (endpoint: median tumor weight (est.), dose: 3.12 mg/kg/injection, schedule: Q07DX005 (ip), vehicle: water): 56 % of control
T/C [1]: 111 % of control

COC1OC(CO)C(O)C(NC(=O)N(C)N=O)C1O (configuration not stated)
T/C [2]: 86 % of control

CC/C(=C(/CC)c1ccc(O)cc1)c1ccc(O)cc1
T/C (endpoint: median tumor weight (est.), dose: 12.5 mg/kg/injection, schedule: Q07DX005 (ip), vehicle: water): 70 % of control
T/C (endpoint: median tumor weight (est.), dose: 25.0 mg/kg/injection, schedule: Q07DX005 (ip), vehicle: water): 66 % of control
T/C [3]: 111 % of control
T/C (endpoint: median tumor weight (est.), dose: 100.0 mg/kg/injection, schedule: Q07DX005 (ip), vehicle: water): 101 % of control
T/C (endpoint: median tumor weight (est.), dose: 200.0 mg/kg/injection, schedule: Q07DX005 (ip), vehicle: water): 49 % of control

O=C1C(O)=C(c2ccccc2)C(=O)C(O)=C1c1ccccc1
T/C (endpoint: median tumor weight change, dose: 31.0 mg/kg/injection, schedule: Q01DX001 (ip), vehicle: saline with Tween-80): 105 % of control
T/C (endpoint: median tumor weight change, dose: 62.0 mg/kg/injection, schedule: Q01DX001 (ip), vehicle: saline with Tween-80): 58 % of control
T/C [4]: 104 % of control

Nc1nc(N)c2cc(CNc3ccc(C(=O)NC(CC(=O)O)CC(=O)O)cc3)ccc2n1
T/C [5]: 86 % of control
T/C (endpoint: median tumor weight (est.), dose: 25.0 mg/kg/injection, schedule: Q07DX005 (ip), vehicle: Klucel (hydroxypropylcellulose) (HPC)): 92 % of control
T/C [6]: 81 % of control
T/C [7]: 54 % of control

CCC1=C[C@H]2CN(CCc3c([nH]c4ccccc34)[C@@](C(=O)OC)(c3cc4c(cc3OC)N(C)[C@H]3[C@@](O)(C(=O)OC)[C@H](OC(C)=O)[C@]5(CC)C=CCN6CC[C@]43[C@@H]65)C2)C1
T/C (endpoint: median tumor weight change, dose: 4.0 mg/kg/injection, schedule: Q01DX001 (ip), vehicle: water): 100 % of control
T/C (endpoint: median tumor weight change, dose: 8.0 mg/kg/injection, schedule: Q01DX001 (ip), vehicle: water): 36 % of control

CC(=O)Nc1ccc(C(=O)C=O)cc1
T/C [8]: 114 % of control
T/C [9]: 117 % of control
T/C [10]: 84 % of control
T/C [11]: 93 % of control
T/C (endpoint: median tumor weight (est.), dose: 200.0 mg/kg/injection, schedule: Q07DX005 (ip), vehicle: saline with Tween-80): 80 % of control

ClC(Cl)=C(Cl)Cl
T/C (endpoint: median tumor weight change, dose: 62.5 mg/kg/injection, schedule: Q01DX001 (ip), vehicle: other): 157 % of control
T/C (endpoint: median tumor weight change, dose: 125.0 mg/kg/injection, schedule: Q01DX001 (ip), vehicle: other): 191 % of control

N=[N+]=CC(=O)OCC(N)C(=O)O (configuration not stated)
T/C (endpoint: median tumor weight (est.), dose: 6.25 mg/kg/injection, schedule: Q07DX005 (ip), vehicle: clinical formulation): 76 % of control
T/C [1]: 58 % of control and 79 % of control
T/C (endpoint: median tumor weight (est.), dose: 12.5 mg/kg/injection, schedule: Q07DX005 (ip), vehicle: clinical formulation): 71 % of control
T/C (endpoint: median tumor weight (est.), dose: 25.0 mg/kg/injection, schedule: Q07DX005 (ip), vehicle: clinical formulation): 32 % of control
T/C (endpoint: median tumor weight (est.), dose: 50.0 mg/kg/injection, schedule: Q07DX005 (ip), vehicle: clinical formulation): 29 % of control
T/C [3]: 65 % of control

COC1C(O)CC(OC2C(C)OC(Oc3cc(O)c4c(O)c5c(cc4c3)C[C@@H]([C@H](OC)C(=O)[C@@H](O)[C@@H](C)O)[C@H](OC3CC(OC4CC(OC6CC(C)(O)C(O)C(C)O6)C(O)C(C)O4)C(O)C(C)O3)C5=O)CC2OC(C)=O)OC1C (some centres not stated)
T/C (endpoint: median tumor weight (est.), dose: 18.75 mg/kg/injection, schedule: Q07DX005 (ip), vehicle: suspension in saline): 207 % of control
T/C (endpoint: median tumor weight (est.), dose: 75.0 mg/kg/injection, schedule: Q07DX005 (ip), vehicle: suspension in saline): 66 % of control
T/C (endpoint: median tumor weight (est.), dose: 150.0 mg/kg/injection, schedule: Q07DX005 (ip), vehicle: suspension in saline): 111 % of control
T/C (endpoint: median tumor weight (est.), dose: 300.0 mg/kg/injection, schedule: Q07DX005 (ip), vehicle: suspension in saline): 123 % of control

O.O.[NH-]C1CCCCC1[NH-].[Pt+2] (configuration not stated)
T/C (endpoint: median tumor weight (est.), dose: 0.62 mg/kg/injection, schedule: Q07DX005 (ip), vehicle: dextrose): 50 % of control
T/C (endpoint: median tumor weight (est.), dose: 20.0 mg/kg/injection, schedule: Q07DX005 (ip), vehicle: dextrose): 69 % of control
T/C (endpoint: median tumor weight (est.), dose: 40.0 mg/kg/injection, schedule: Q07DX005 (ip), vehicle: dextrose): 39 % of control

O=[N+]([O-])c1ccc(Sc2ccncn2)c([N+](=O)[O-])c1
T/C (endpoint: median tumor weight change, dose: 62.5 mg/kg/injection, schedule: Q01DX001 (ip), vehicle: saline with Tween-80): 108 % of control
T/C [4]: 62 % of control

CC(Cc1ccc(O)c(O)c1)C(C)Cc1ccc(O)c(O)c1 (configuration not stated)
T/C [12]: 123 % of control
T/C (endpoint: median tumor weight change, dose: 1000.0 mg/kg/injection, schedule: Q01DX001 (ip), vehicle: saline): 57 % of control

C[C@]12CCC(=O)C(O)=C1CC[C@@H]1[C@@H]2CC[C@]2(C)C(=O)CC[C@@H]12
T/C (endpoint: median tumor weight (est.), dose: 100.0 mg/kg/injection, schedule: Q01DX001 (ip), vehicle: Klucel (hydroxypropylcellulose) (HPC)): 182 % of control
T/C [7]: 32 % of control
T/C (endpoint: median tumor weight (est.), dose: 200.0 mg/kg/injection, schedule: Q01DX001 (ip), vehicle: Klucel (hydroxypropylcellulose) (HPC)): 9 % of control
T/C [13]: 62 % of control
T/C (endpoint: median tumor weight (est.), dose: 400.0 mg/kg/injection, schedule: Q01DX001 (ip), vehicle: Klucel (hydroxypropylcellulose) (HPC)): 189 % of control
T/C [14]: 32 % of control
T/C (endpoint: median tumor weight (est.), dose: 800.0 mg/kg/injection, schedule: Q01DX001 (ip), vehicle: Klucel (hydroxypropylcellulose) (HPC)): 68 % of control
T/C (endpoint: median tumor weight (est.), dose: 800.0 mg/kg/injection, schedule: Q07DX005 (ip), vehicle: Klucel (hydroxypropylcellulose) (HPC)): 54 % of control
T/C (endpoint: median tumor weight change, dose: 125.0 mg/kg/injection, schedule: Q01DX001 (ip), vehicle: Klucel (hydroxypropylcellulose) (HPC)): 78 % of control
T/C (endpoint: median tumor weight change, dose: 250.0 mg/kg/injection, schedule: Q01DX001 (ip), vehicle: Klucel (hydroxypropylcellulose) (HPC)): 91 % of control
T/C (endpoint: median tumor weight change, dose: 500.0 mg/kg/injection, schedule: Q01DX001 (ip), vehicle: Klucel (hydroxypropylcellulose) (HPC)): 72 % of control
T/C (endpoint: median tumor weight change, dose: 1000.0 mg/kg/injection, schedule: Q01DX001 (ip), vehicle: Klucel (hydroxypropylcellulose) (HPC)): 68 % of control
T/C (endpoint: median tumor weight change, dose: 2000.0 mg/kg/injection, schedule: Q01DX001 (ip), vehicle: Klucel (hydroxypropylcellulose) (HPC)): 72 % of control

Cc1cccc(-[n+]2noc(N)n2)c1
T/C (endpoint: median tumor weight change, dose: 62.0 mg/kg/injection, schedule: Q01DX001 (ip), vehicle: water): 80 % of control
T/C (endpoint: median tumor weight change, dose: 125.0 mg/kg/injection, schedule: Q01DX001 (ip), vehicle: water): 51 % of control

O=c1nc(Oc2ccccc2)nc2ncccn12
T/C (endpoint: median tumor weight (est.), dose: 6.25 mg/kg/injection, schedule: Q07DX005 (ip), vehicle: saline with Tween-80): 88 % of control
T/C [8]: 110 % of control
T/C [9]: 100 % of control
T/C [10]: 91 % of control
T/C [11]: 114 % of control

CN(C)N=Nc1ccc(S(N)(=O)=O)cc1
T/C [5]: 225 % of control and 117 % of control
T/C [6]: 213 % of control and 73 % of control
T/C [7]: 72 % of control and 93 % of control
T/C [13]: 48 % of control
T/C [14]: 22 % of control

CCCCCCCCCCCCCCC/C([O-])=N/[N+](C)(C)CC(C)O (configuration not stated)
T/C [2]: 49 % of control
T/C (endpoint: median tumor weight change, dose: 250.0 mg/kg/injection, schedule: Q01DX001 (ip), vehicle: saline): 96 % of control
T/C [12]: 69 % of control

COc1c(O)c2c(c3cc(C(=O)N4CCc5c4c(O)c(OC)c4[nH]c(C(=O)N6CC7CC78C6=CC(=O)c6[nH]cc(C)c68)cc54)[nH]c13)CCN2C(N)=O (configuration not stated)
T/C (endpoint: median tumor weight (est.), dose: 6.25 micrograms/kg/injection, schedule: Q07DX005 (ip), vehicle: DMSO): 97 % of control
T/C (endpoint: median tumor weight (est.), dose: 12.5 micrograms/kg/injection, schedule: Q07DX005 (ip), vehicle: DMSO): 42 % of control
